# Results published in the supplement of paper PMC10307832.
# Assays:
# Assay in all cases: relative viability (nuclei count vs DMSO), 5 days (fraction); higher = more cells survive
# [1] = compound: CC1(C)CNc2cc(NC(=O)c3cccnc3NCc3ccncc3)ccc21 [Motesanib] + COc1cccc2cc(-c3nc([C@H]4CC[C@H](C(=O)O)CC4)n4ncnc(N)c34)[nH]c12 [OSI-027] (partner 0.5 µM)
# Summary of the method: (§1)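 Lung cancer cell lines in 1536-well plates were dosed by pin tool the day after seeding, either with one drug alone or with a fixed anchor-drug dose plus five library-drug doses (not always all listed) in √10 steps. After 5 days, cells were fixed and their nuclei stained in one step (final 0.05% Triton X-100, 1% formaldehyde, 1 ug/ml Hoechst), then counted on 4× images. Relative viability is the nuclei count in treated wells divided by that in vehicle wells. Values are medians of duplicate plates.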
# [2] = compound: C[C@@]1(C(=O)Nc2ccc(F)nc2)CCCN1c1nc(Nc2cc(C3CC3)n[nH]2)c2cccn2n1 + CC1(C)CCC(c2ccc(Cl)cc2)=C(CN2CCN(c3ccc(C(=O)NS(=O)(=O)c4ccc(N[C@H](CCN5CCOCC5)CSc5ccccc5)c(S(=O)(=O)C(F)(F)F)c4)cc3)CC2)C1 [Navitoclax] (partner 0.5 µM)
# Summary of the method: as §1
# [3] = compound: C[C@@]1(C(=O)Nc2ccc(F)nc2)CCCN1c1nc(Nc2cc(C3CC3)n[nH]2)c2cccn2n1 + CS(=O)(=O)CCNCc1ccc(-c2ccc3ncnc(Nc4ccc(OCc5cccc(F)c5)c(Cl)c4)c3c2)o1 [Lapatinib] (partner 2 µM)
# Summary of the method: as §1
# [4] = compound: CC1(C)CNc2cc(NC(=O)c3cccnc3NCc3ccncc3)ccc21 [Motesanib] + CC1(C)CCC(c2ccc(Cl)cc2)=C(CN2CCN(c3ccc(C(=O)NS(=O)(=O)c4ccc(N[C@H](CCN5CCOCC5)CSc5ccccc5)c(S(=O)(=O)C(F)(F)F)c4)cc3)CC2)C1 [Navitoclax] (partner 0.5 µM)
# Summary of the method: as §1
cell line,measurement,setting,value
UMC-11,relative viability,[1]; first compound 0.01 µM,0.461
same,relative viability,[1]; first compound 0.03162 µM,0.466
same,relative viability,[1]; first compound 0.1 µM,0.38
same,relative viability,[1]; first compound 0.3162 µM,0.503
same,relative viability,[1]; first compound 1 µM,0.51
same,relative viability,[2]; first compound 0.04 µM,0.365
same,relative viability,[2]; first compound 0.1265 µM,0.293
same,relative viability,[2]; first compound 0.4 µM,0.249
same,relative viability,[2]; first compound 1.265 µM,0.269
same,relative viability,[3]; first compound 0.04 µM,1.02
same,relative viability,[3]; first compound 0.1265 µM,1.02
same,relative viability,[3]; first compound 0.4 µM,0.826
same,relative viability,[3]; first compound 1.265 µM,0.805
same,relative viability,[4]; first compound 0.01 µM,0.341
same,relative viability,[4]; first compound 0.03162 µM,0.312
same,relative viability,[4]; first compound 0.1 µM,0.31
same,relative viability,[4]; first compound 0.3162 µM,0.302
same,relative viability,[4]; first compound 1 µM,0.318
